One molecule from patent US5532229A, “Topical administration of vitamin D to mammals” (priority 1994, dated 1996) can be followed below.

A short description of data set [1]: Experiment 2: uptake of [14C]-vitamin D3 tracer into serum and conversion to [14C]-25(OH)D3. It counts as in vivo, Male Wistar rats. The settings on record: tracer added to last day's dose. On the procedure:
One dose of [carbon-14]-labelled vitamin D3 was given at the time of the last of 14 daily doses of nonradioactive vitamin D3. The graphs show the uptake and metabolism of one [^14 C]-vitamin D3 dose during the course of gastric or dermal supplementation with vitamin D3. The tracer was given in addition to the usual, 8 μg/day vitamin D3 dose, and by the same route. Radioactivity in serum was isolated by chromatography to measure that which elutes as vitamin D3, or as […], Each point is the mean of results from six rats;
Uptake of radioactive vitamin D3 from skin or gut during the longer term treatment with vitamin D3 at 20 nmol/day.
The previous experiment 1 involved only one acute dose of a minute, tracer amount of vitamin D3. It remained possible that dermal application could not deliver a larger, more nutritionally relevant amount of vitamin D3. This experiment 2 looked at what happens when vitamin D3 is given during the course of daily treatment with a moderate amount of vitamin D3.
After 30 days, the rats were divided into three groups of 6: one group continued with no supplement, one group was given daily vitamin D3 supplement, 8 μg/day either by gastric tube, the third received the supplement by application to the skin in 50 μL ethanol. Vitamin D3 was given for 3 wk. The day before the rats were killed, the vitamin D3 dose was supplemented with [^14 C]-labelled vitamin D3, 915,000 cpm per rat. Blood was obtained from the tail of each rat at 3 h, 9 h, and by heart puncture when the rats were anesthetized for killing, 24 h after giving the tracer. The blood was extracted and chromatographed to distinguish [^14 C]-vitamin D3 from the [^14 C]-25(OH)D3generated from it. Radioactivity was also measured in the liver, kidney, and adipose tissue. Serum nonradioactive 25(OH)D3 was also measured.

The nature of data set [2]: Experiment 3: serum calcium, phosphate, alkaline phosphatase and body weight after 6 weeks. The note with it: for Serum Alkaline phosphatase: 6 weeks. In kind it is in vivo, Male Wistar rats. As to the method:
Male, Wistar rats were obtained at 120-130 g, and placed on a 0.01% calcium, 0.7% phosphate diet that was vitamin D deficient (Teklad Test Diets, Madison, WI) this was for one week to help deplete vitamin D stores. For the next three weeks the rats were fed the vitamin D-deficient diet, but with normal, 0.5%, calcium. Starting with these 3 weeks, the rats were divided into four vitamin D3 -treatment groups, initially, nine rats per group: group a) supplemented once weekly with 0.6 μg vitamin D3 (average dose, 0.08 μg/day); group b) supplemented once every second day with vitamin D3 to provide 2 nmol/day, i.e., each dose was 4 nmol of vitamin D3; group c) supplemented once every second day with vitamin D3 to provide 8 μg/day. The preceding groups all received the vitamin D3 through an infant-feeding tube inserted through the mouth into the stomach. One group, d), received its vitamin D3 in the ethanol applied onto a shaved 2 cm×2 cm patch of skin on the back, this was done every second day to provide vitamin D3 at 8 μg/day. The volume of each dose of vitamin D3 given was adjusted so that the stated doses are per 250 g body weight. Over a second 3-week period while maintaining the described vitamin D3 dosing regimens, diet calcium content was changed weekly and blood sampling was started (that is, changes in calcium and sampling was from weeks 4 to 6, inclusive, of receiving the appropriate vitamin D3 supplement). Diet calcium was first dropped to 0.01% then raised to 1.5% and finally dropped again to 0.01%. For each week of dietary calcium manipulation, blood was obtained at day zero (the day of but just prior to the change in calcium), and days 1, 3, and 7 after the change. During the first week, 0.5 mL of blood was taken on the first two of these days and anticoagulated with heparin, the cells were isolated and resuspended in normal rat plasma and reinjected into the femoral vein. […] For the subsequent samplings, only 0.2-0.3 mL of blood was taken by bleeding from the tail into precalibrated microcentrifuge tubes. In this way, the bleeds prior to sacrifice removed a net total of less than 2 mL of blood, that is, less than or equal to 10% of the blood volume. Samples of daytime urine was collected into microfuge tubes that were fastened to the cones of metabolic collection funnels designed to hang under the wire cages. The cages and cones were rinsed with 0.1 mol/L hydrochloric acid prior to each collection. To eliminate contamination of the urine with diet, stool or water, the rats were placed into these separate cages only during the urine-collection period, until about 1 mL urine was present in the microfuge tube, this was typically within 5 min to one hour. […]

Molecules are shown by their SMILES.

Regarding `C=C1CC[C@H](O)C/C1=C/C=C1\CCC[C@]2(C)[C@@H]([C@H](C)CCCC(C)C)CC[C@@H]12` [vitamin D3], in data set [1], the “rate of uptake into circulation, dermal vs gastric” value is listed as “more slowly when given via the dermal route”. Further, the “Serum Alkaline phosphatase” value in data set [2] (0.08 μg/day diet) was 119 U/L; in data set [2] (0.8 μg/day G1 (gastric)), 151 U/L; in data set [2] (8 μg/day G1 (gastric)) it was 147 U/L; in data set [2] (8 μg/day dermal), 152 U/L. Besides, the “body weight difference between groups” value in data set [2] (end of experiment 3) is reported as “no weight differences between the groups”.
